Earlier results on two molecules are cited in patent publication US10925895B2, “Composition and method of using medicament for treatment of cancers and tumors” (priority 2014, dated 2021).

SMILES strings stand for the structures. Read-outs that look alike come from different tables or passages of the source.

Consider `[Ca+2].[OH-].[OH-]` [Calcium hydroxide, calcium hydroxide], for which the “effectiveness against Enterococcus faecalis” value in the data set with Enterococcus faelicalis is reported as “ineffective”.
For `OCl` [Sodium hypochlorite, sodium hypochlorite], the “effectiveness against Enterococcus faecalis” value in the data set on Enterococcus faelicalis is listed as “not effective”. Besides, the “effectiveness as tissue dissolving agent” value in the data set with organic tissue (5.25% for 40 minutes) is reported as “highly effective”; in the data set on organic tissue (at 1.3-2.5%), “ineffective”.
